Series [1] concerns Influenza B/Ned/537/05 (Ned05; B/Yamagata lineage). Description: Influenza virus inhibition assay in Calu-3 cells, IBV. It counts as cell-based, influenza B virus.
The subject of series [2] is Influenza A/Virginia/ATCC3/2009 (Virg09; A/H1N1). In words: Influenza virus inhibition assay in Calu-3 cells, IAV H1N1. The class given is cell-based, influenza A virus.
Another series deals with hCoV-NL63. In words: HCoV-NL63 inhibition assay in Caco-2 cells. The class given is cell-based. On the procedure:
Caco‐2 cells (25 000) were seeded in a 96‐well flat‐bottom plate before the following day, cells were treated for 30 min with serial dilutions of compounds in PBS and the cells were infected with a MOI of 0.018 and incubated at 33 °C. At 72 hpi, cells were detached and fixed in a final concentration of 4% PFA for 30 min. Subsequently, cells were washed with PBS and stained for flow cytometry analysis with anti‐NL63‐nucleocapsid antibody (SinoBiological #40641‐T62) diluted 1:5000 in Buffer B (Fix and Perm, MuBio Nordic) for 40 min at 4 °C. Cells were washed twice with FACS buffer (1% FCS in PBS) and incubated with Alexa Flour 647 labeled anti‐rabbit antibody (Cell Signaling #4414) diluted 1:5000 in FACS buffer for 30 min at 4 °C before the cells were washed again twice with FACS buffer. Analysis was performed using a CytoflexLX flow cytometer (Beckmann Coulter) with CytExpert 2.3 software.

Another series concerns the target T1, Kallikrein 5 (Homo sapiens, UniProt Q9Y337).
T1 construct: purchased R&D 1108
Description: Recombinant kallikrein 5 activity assay. The note with it: recombinant enzyme. It counts as biochemical. Here is the method: Kallikrein 5 activity was measured by mixing 25 µL of compound with 25 µL of 2 µg mL^−1 of recombinant enzyme (R&D #1108) in assay buffer (100 mM NaH2PO4, pH 8) for 15 min at 37 °C before the addition of 50 µL of BOC‐Val‐Pro‐Arg‐AMC substrate (R&D #ES011). The mixture was incubated for 5 min at 37 °C before fluorescence intensity was measured at an excitation wavelength of 380 nm and emission wavelength of 460 nm in a SynergyTM H1 microplate reader (BioTek) with Gen5 3.04 software.

Series [3] relates to Influenza A/Victoria/361/11 (Vict11; A/H3N2). Description: Influenza virus inhibition assay in Calu-3 cells, IAV H3N2. The class given is cell-based, influenza A virus.
For series [4] the following is noted: cited from earlier work.
A further series deals with SARS-CoV-2 Omicron BA.1. In words: microbe, parasite or virus in culture. The class given is cell-based.
The next series concerns the target T2, TMPRSS13 (Homo sapiens, UniProt Q9BYE2).
T2 construct: encoding the respective transmembrane serine protease per well; host or cells: HEK293T
Description: Cellular TMPRSS13 activity assay in transfected HEK293T cells. The class given is cell-based. Here is the method:
(§1) Twenty thousand HEK293T cells were seeded in a 96‐well flat bottom plate. The next day, cells were transfected with 100 ng of an expression plasmid (Backbone: Twist Bioscience, EF1alpha mammalian expression vector) encoding the respective transmembrane serine protease per well using LT1 transfection reagent (TMPRSS2 human NCBI RefSeq: NP_005647.3; TMPRSS2 Syrian gold hamster NCBI RefSeq: XP_012971683.1; TMPRSS11D NCBI RefSeq: NP_004253.1; TMPRSS13 NCBI RefSeq: NP_001070731.1). In short, plasmid DNA was mixed in a 1:3 ratio with LT1 in a serum‐free medium and incubated for 20 min before the mixture was applied dropwise onto the cells. Sixteen hours post‐transfection, the medium was replaced by a serum‐free medium, and cells were treated with serial dilution of compounds in PBS. After 15 min of incubation at 37 °C, 100 µM of respective protease‐specific substrate (TMPRSS2: Boc‐QAR‐AMC, Bachem # 4017019; TMPRSS11D: Boc‐FSR‐AMC, Bachem # 4012340; TMPRSS13: Pyr‐RTKR‐AMC, Bachem #4018149) was added and incubated for 2 h at 37 °C. Fluorescence intensity was recorded at an excitation wavelength of 380 nm and emission wavelength of 460 nm in a Synergy H1 microplate reader (BioTek) with Gen 5 3.04 software. Values were background corrected for non‐transfected HEK293T‐cells.

The target of another series is T3, TMPRSS14 (Matriptase) (Homo sapiens, UniProt Q9Y5Y6).
T3 construct: purchased 3946
T3 sequence (Q9Y5Y6 whole entry): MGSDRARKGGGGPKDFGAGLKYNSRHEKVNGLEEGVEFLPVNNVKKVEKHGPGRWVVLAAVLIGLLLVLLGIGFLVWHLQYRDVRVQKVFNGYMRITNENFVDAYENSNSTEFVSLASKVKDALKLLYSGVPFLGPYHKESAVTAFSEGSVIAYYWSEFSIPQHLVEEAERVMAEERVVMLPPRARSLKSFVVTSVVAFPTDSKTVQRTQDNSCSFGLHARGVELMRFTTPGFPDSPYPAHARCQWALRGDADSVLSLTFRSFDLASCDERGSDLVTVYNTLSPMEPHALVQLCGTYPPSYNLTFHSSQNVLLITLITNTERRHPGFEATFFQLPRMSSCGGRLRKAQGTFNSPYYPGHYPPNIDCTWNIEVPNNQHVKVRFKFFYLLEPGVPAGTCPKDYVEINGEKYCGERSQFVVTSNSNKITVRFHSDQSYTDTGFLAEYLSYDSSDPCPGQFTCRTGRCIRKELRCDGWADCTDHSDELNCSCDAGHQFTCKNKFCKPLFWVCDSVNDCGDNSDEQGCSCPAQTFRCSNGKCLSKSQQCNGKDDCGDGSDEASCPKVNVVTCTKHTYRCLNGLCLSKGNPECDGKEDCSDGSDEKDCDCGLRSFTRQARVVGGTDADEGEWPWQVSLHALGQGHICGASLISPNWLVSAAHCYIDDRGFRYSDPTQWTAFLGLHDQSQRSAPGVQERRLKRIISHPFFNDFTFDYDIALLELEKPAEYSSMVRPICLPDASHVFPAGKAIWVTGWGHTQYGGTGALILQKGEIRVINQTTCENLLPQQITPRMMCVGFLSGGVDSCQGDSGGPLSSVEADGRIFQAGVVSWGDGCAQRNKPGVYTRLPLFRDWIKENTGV
Description: Recombinant TMPRSS14 activity assay. The class given is biochemical. The note with it: recombinant enzyme. Here is the method:
In the next step, 50 µL of 20 µM BOC‐Gln‐Ala‐Arg‐AMC protease substrate (Bachem #4017019) in the case of TMPRSS2 and TMPRSS14 or 50 µL of 150 µM BOC‐Gln‐Arg‐Arg‐AMC (PeptaNova) in the case of TMPRSS1 was added and incubated for 2 h for TMPRSS2, or 5 mins in the case of TMPRSS1/14 at 37 °C. Fluorescence intensity was measured after 2 h at an excitation wavelength of 380 nm and emission wavelength of 460 nm in a SynergyTM H1 microplate reader (BioTek) with Gen5 3.04 software. […] Assays were performed in a total volume of 100 µL in quadruplicate wells of a 96 Nunc well plate (Thermo Scientific #10174221) with a final TMPRSS2 concentration of 20 nM. Initial velocities were measured in 50 s intervals for 15 min with excitation of 360 nm and emission of 460 nm in a SynergyTM H1 microplate reader. K m and V max were calculated from Michaelis–Menten plots using GraphPadPrism. The inhibitory constant K i was calculated from the IC50 values according to the Cheng–Prusoff equation (K i = IC50/(1 + [S]/K m)) for competitive reversible inhibitors.^[ [91] ^]

The target of a further series is T4, TMPRSS11D (Homo sapiens, UniProt O60235).
T4 construct: encoding the respective transmembrane serine protease per well; host or cells: HEK293T
T4 sequence (O60235 whole entry): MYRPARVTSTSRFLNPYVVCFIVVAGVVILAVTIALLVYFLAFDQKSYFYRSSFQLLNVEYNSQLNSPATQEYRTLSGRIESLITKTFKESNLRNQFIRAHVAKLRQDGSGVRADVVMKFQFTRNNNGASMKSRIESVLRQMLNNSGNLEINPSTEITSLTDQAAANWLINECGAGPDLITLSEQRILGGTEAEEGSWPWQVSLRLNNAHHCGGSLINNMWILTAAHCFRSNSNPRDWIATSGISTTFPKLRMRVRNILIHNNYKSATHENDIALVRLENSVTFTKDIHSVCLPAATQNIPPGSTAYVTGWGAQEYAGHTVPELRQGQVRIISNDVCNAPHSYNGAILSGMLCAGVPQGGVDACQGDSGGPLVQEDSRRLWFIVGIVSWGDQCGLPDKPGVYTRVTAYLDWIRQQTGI
In words: Cellular TMPRSS11D activity assay in transfected HEK293T cells. It counts as cell-based. On the procedure:
as §1

Series [5] relates to lentiviral pseudoparticles harboring VSV-G glycoprotein. The class given is cell-based.
Where [6] appears, read: Table S1, read-out: anti-viral IC50 (±SEM), IBV.
[7] abbreviates: Table S1, read-out: anti-viral IC50 (±SEM), IAV H1N1.
The mark [8] stands for this setting: Human coronavirus NL63, Caco-2, Table S1, read-out: anti-viral IC50 (±SEM), hCoV-NL63.

Structures can show the parent of a compound that is named as a salt. Where two headings read alike, the source gives them in different places. Bridge positions count the residues as written; N and C are the ends. Ends that are not written are not given here.

T2 sequence (Q9BYE2 other isoform, or with tags, fused parts or gaps): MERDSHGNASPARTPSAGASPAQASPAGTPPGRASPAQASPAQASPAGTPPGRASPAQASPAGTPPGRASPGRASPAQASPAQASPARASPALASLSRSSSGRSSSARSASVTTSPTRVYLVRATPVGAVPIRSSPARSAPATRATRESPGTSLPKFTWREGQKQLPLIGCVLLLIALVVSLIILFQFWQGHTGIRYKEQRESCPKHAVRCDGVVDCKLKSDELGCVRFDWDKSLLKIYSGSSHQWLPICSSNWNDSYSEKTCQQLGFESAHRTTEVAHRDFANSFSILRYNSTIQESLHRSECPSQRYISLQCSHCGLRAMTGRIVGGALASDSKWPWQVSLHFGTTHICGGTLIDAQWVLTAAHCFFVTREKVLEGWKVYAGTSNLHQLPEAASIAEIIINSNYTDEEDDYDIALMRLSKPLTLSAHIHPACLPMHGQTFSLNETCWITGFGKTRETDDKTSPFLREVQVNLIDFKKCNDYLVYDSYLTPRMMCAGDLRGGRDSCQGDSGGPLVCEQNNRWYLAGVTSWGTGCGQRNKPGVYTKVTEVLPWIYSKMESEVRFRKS
T1 sequence (Q9Y337 23-293): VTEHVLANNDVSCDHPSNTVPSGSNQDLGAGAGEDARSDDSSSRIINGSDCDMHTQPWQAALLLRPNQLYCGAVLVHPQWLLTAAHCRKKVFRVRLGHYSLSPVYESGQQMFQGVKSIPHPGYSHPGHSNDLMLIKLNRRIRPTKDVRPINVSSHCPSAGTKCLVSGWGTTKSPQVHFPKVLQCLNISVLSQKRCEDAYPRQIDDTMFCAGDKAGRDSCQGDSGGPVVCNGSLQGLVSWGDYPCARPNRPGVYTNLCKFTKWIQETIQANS

The term IC50 denotes the midpoint of a concentration-inhibition curve. As for `O=C1c2c(O)c(=O)ccn2N([C@@H]2c3ccccc3SCc3c2ccc(F)c3F)[C@@H]2COCCN12` [Baloxavir acid], the IC50 in series [1] (setting [6]) is 10.3 ± 2 nM; in [2] (setting [7]) it was 1.6 ± 1 nM.

For `CN(C)C(=O)COC(=O)Cc1ccc(OC(=O)c2ccc(NC(=N)N)cc2)cc1` [Camostat mesylate], the IC50 in series [1] (Influenza B virus, Calu-3, 72 h, read-out: IC50, IBV (Ned05)) came out at 125 nM; in series [1] (Influenza B virus, Calu-3, Table S1, read-out: anti-viral IC50 (±SEM), IBV), 125 ± 33 nM; with hCoV-NL63 (Human coronavirus NL63, Caco-2, 72 h, read-out: IC50, hCoV-NL63 replication) it was 110 nM; in the series with hCoV-NL63 (setting [8]), 110 ± 24 nM; in series [2] (Influenza A virus, Calu-3, 72 h, read-out: IC50, IAV H1N1 (Virg09)), 220 nM; in series [2] (Influenza A virus, Calu-3, Table S1, read-out: anti-viral IC50 (±SEM), IAV H1N1), 220 ± 49 nM. The IC50 on Kallikrein 5 amounted to 536 nM; in series [3] (Influenza A virus, H3N2, Calu-3, 72 h, read-out: IC50, IAV H3N2 (Vict11)), 50 nM; in series [3] (Influenza A virus, H3N2, Calu-3, Table S1, read-out: anti-viral IC50 (±SEM), IAV H3N2) it was 50.2 ± 16 nM; in the series with SARS-CoV-2 Omicron BA.1 (Severe acute respiratory syndrome coronavirus 2, Caco-2, 24 h, read-out: IC50, SARS-CoV-2 Omicron BA.1), 68 nM; with SARS-CoV-2 Omicron BA.1 (Severe acute respiratory syndrome coronavirus 2, Caco-2, read-out: anti-viral IC50 (±SEM), SARS-CoV-2 BA.1), 68.1 ± 5 nM; at TMPRSS13 it was 93 nM. Further, the IC50 is 23 nM at TMPRSS14 (Matriptase) and 194 nM on TMPRSS11D. In addition, the plasma half-life in series [4] is under 2 h.

A word on the half-life: it is the time in which the quantity being followed falls by half. For `N=C(N)c1ccc2cc(OC(=O)c3ccc(N=C(N)N)cc3)ccc2c1` [Nafamostat mesylate], the half-life in series [4] is on record as 8 min.

As to `CC(C)(C)[C@H](NC(=O)C(F)(F)F)C(=O)N1C[C@H]2[C@@H]([C@H]1C(=O)N[C@H](C#N)C[C@@H]1CCNC1=O)C2(C)C` [Nirmatrelvir], the IC50 in the series with hCoV-NL63 (setting [8]) was determined as 1260 ± 64 nM.

As to Aprotinin, the IC50 came out at 2790 ± 871 nM in series [1] (setting [6]); 2250 ± 886 nM in [2] (setting [7]); 1460 ± 693 nM in series [3] (Table S1, read-out: anti-viral IC50 (±SEM), IAV H3N2).

Turning to “CNLPIVRGPCRAFIQLWAFDAVKGKCVLFPYGGCQGNGNKFYSEKECREYC (disulfide 1-51, 10-34, 26-47) [Bikunin KD 2]”, the “effect on VSV-G-mediated pseudoparticle entry” value in series [5] was “without affecting VSV‐G‐driven entry”.

B1: Bikunin (protein, UniProt P02760 206-352, looked up)
Inter-alpha-trypsin inhibitor …: AVLPQEEEGSGGGQLVTEVTKKEDSCQLGYSAGPCMGMTSRYFYNGTSMACETFQYGGCMGNGNNFVTEKECLQTCRTVAACNLPIVRGPCRAFIQLWAFDAVKGKCVLFPYGGCQGNGNKFYSEKECREYCGVPGDGDEELLRFSN
modifications: Inter-alpha-trypsin inhibitor light chain
As to B1, the “effect on VSV-G-mediated pseudoparticle entry” value in series [5] is reported as “non‐specific effects against VSV‐G‐mediated entry”.

These data come from paper PMC12224939, “Trypstatin as a Novel TMPRSS2 Inhibitor with Broad‐Spectrum Efficacy against Corona and Influenza Viruses” (Advanced Science, 2025).
